Data taken from patent US8710065B2, “Tricyclic inhibitors of kinases” (AbbVie Inc., priority 2011, dated 2014).

Target: T1, GST-tagged-Wee1 kinase (Homo sapiens, UniProt P30291)
T1 construct: purchased Carnabio (Carna Biosciences) 05-177
Test: Wee1 time-resolved fluorescence equilibrium binding assay (displacement of Oregon Green-labeled ATP-competitive kinase probe)
Conditions: read-out: Wee-1 inhibition (Ki)
Method in brief: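 Time-resolved fluorescence equilibrium binding with GST-Wee1, measuring displacement of a rapidly reversible Oregon Green-labelled ATP-competitive probe by competitive inhibitors; values reported as Ki.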

T1 sequence (P30291 whole entry): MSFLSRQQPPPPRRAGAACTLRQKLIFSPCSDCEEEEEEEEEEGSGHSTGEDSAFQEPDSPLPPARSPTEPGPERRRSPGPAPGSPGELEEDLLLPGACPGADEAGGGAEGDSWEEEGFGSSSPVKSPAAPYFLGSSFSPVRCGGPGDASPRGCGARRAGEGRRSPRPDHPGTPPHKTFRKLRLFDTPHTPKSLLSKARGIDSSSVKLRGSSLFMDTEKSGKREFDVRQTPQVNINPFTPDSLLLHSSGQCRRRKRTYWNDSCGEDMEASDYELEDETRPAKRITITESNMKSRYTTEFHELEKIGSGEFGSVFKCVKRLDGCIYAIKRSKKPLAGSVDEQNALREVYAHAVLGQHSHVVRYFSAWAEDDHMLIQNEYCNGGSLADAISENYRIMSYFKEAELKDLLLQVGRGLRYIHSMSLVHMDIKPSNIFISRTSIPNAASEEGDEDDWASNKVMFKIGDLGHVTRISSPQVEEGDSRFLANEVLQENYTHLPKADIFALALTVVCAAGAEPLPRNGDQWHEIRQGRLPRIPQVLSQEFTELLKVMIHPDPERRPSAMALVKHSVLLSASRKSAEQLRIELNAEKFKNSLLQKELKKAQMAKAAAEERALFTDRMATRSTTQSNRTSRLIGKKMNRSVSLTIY

SMILES	Ki [nM]
O=c1c2cnc(Nc3ccc4c(c3)CNCC43CC3)nc2n2ccnc2n1-c1ccc(O)cc1 [Example 205, 2-(2′,3′-dihydro-1′H-spiro[cyclopropane-1,4′-isoquinolin]-7′-ylamino)-6-(4-hydroxyphenyl)imidazo[1,2-a]pyrimido[5,4-e]pyrimidin-5(6H)-one]	< 10
O=c1c2cnc(Nc3ccc(N4CCN5CCCCC5C4)cc3)nc2n2ccnc2n1-c1ccccc1Cl (stereo not drawn) [Example 208, 6-(2-chlorophenyl)-2-{[4-(octahydro-2H-pyrido[1,2-a]pyrazin-2-yl)phenyl]amino}imidazo[1,2-a]pyrimido[5,4-e]pyrimidin-5(6H)-one]	< 10
O=c1c2cnc(Nc3ccc(N4CCN(C5COC5)CC4)cc3)nc2n2ccnc2n1-c1ccccc1Cl [Example 211, 6-(2-chlorophenyl)-2-({4-[4-(oxetan-3-yl)piperazin-1-yl]phenyl}amino)imidazo[1,2-a]pyrimido[5,4-e]pyrimidin-5(6H)-one]	10 to 100
CC(=O)N1CCN(c2ccc(Nc3ncc4c(=O)n(-c5c(Cl)cccc5Cl)c5nccn5c4n3)cc2)CC1 [Example 214, 2-{[4-(4-acetylpiperazin-1-yl)phenyl]amino}-6-(2,6-dichlorophenyl)imidazo[1,2-a]pyrimido[5,4-e]pyrimidin-5(6H)-one]	< 10
O=c1c2cnc(Nc3cc(Cl)c(N4CCNCC4)c(Cl)c3)nc2n2ccnc2n1-c1ccccc1Cl [Example 217, 6-(2-chlorophenyl)-2-{[3,5-dichloro-4-(piperazin-1-yl)phenyl]amino}imidazo[1,2-a]pyrimido[5,4-e]pyrimidin-5(6H)-one]	10 to 100
O=c1c2cnc(Nc3ccc(-c4cn5ccccc5n4)cc3)nc2n2ccnc2n1-c1ccccc1Cl [Example 218, 6-(2-chlorophenyl)-2-{[4-(imidazo[1,2-a]pyridin-2-yl)phenyl]amino}imidazo[1,2-a]pyrimido[5,4-e]pyrimidin-5(6H)-one]	10 to 100
CC(C)N1C(=O)CSC1c1ccc(Nc2ncc3c(=O)n(-c4ccccc4Cl)c4nccn4c3n2)cc1 (stereo not drawn) [Example 219, 6-(2-chlorophenyl)-2-({4-[4-oxo-3-(propan-2-yl)-1,3-thiazolidin-2-yl]phenyl}amino)imidazo[1,2-a]pyrimido[5,4-e]pyrimidin-5(6H)-one]	< 10
O=c1c2cnc(Nc3ccc(-c4cn5c(n4)SCC5)cc3)nc2n2ccnc2n1-c1ccccc1Cl [Example 220, 6-(2-chlorophenyl)-2-{[4-(2,3-dihydroimidazo[2,1-b][1,3]thiazol-6-yl)phenyl]amino}imidazo[1,2-a]pyrimido[5,4-e]pyrimidin-5(6H)-one]	10 to 100
CC1SC(c2ccc(Nc3ncc4c(=O)n(-c5ccccc5Cl)c5nccn5c4n3)cc2)NC1=O (stereo not drawn) [Example 221, 6-(2-chlorophenyl)-2-{[4-(5-methyl-4-oxo-1,3-thiazolidin-2-yl)phenyl]amino}imidazo[1,2-a]pyrimido[5,4-e]pyrimidin-5(6H)-one]	10 to 100
O=c1c2cnc(Nc3ccc(-c4cn5ccsc5n4)cc3)nc2n2ccnc2n1-c1ccccc1Cl [Example 222, 6-(2-chlorophenyl)-2-{[4-(imidazo[2,1-b][1,3]thiazol-6-yl)phenyl]amino}imidazo[1,2-a]pyrimido[5,4-e]pyrimidin-5(6H)-one]	10 to 100
O=c1[nH][nH]c2c(-c3ccc(Nc4ncc5c(=O)n(-c6ccccc6Cl)c6nccn6c5n4)cc3)cccc12 [Example 223, 6-(2-chlorophenyl)-2-{[4-(3-oxo-2,3-dihydro-1H-indazol-7-yl)phenyl]amino}imidazo[1,2-a]pyrimido[5,4-e]pyrimidin-5(6H)-one]	< 10
O=c1c2cnc(Nc3ccc(N4CCC(N5CCCCC5)CC4)cc3)nc2n2ccnc2n1-c1ccccc1Cl [Example 229, 2-{[4-(1,4′-bipiperidin-1′-yl)phenyl]amino}-6-(2-chlorophenyl)imidazo[1,2-a]pyrimido[5,4-e]pyrimidin-5(6H)-one]	< 10
CN(C)[C@@H]1CCN(c2ccc(Nc3ncc4c(=O)n(-c5ccccc5Cl)c5nccn5c4n3)cc2)C1 [Example 230, 6-(2-chlorophenyl)-2-({4-[(3R)-3-(dimethylamino)pyrrolidin-1-yl]phenyl}amino)imidazo[1,2-a]pyrimido[5,4-e]pyrimidin-5(6H)-one]	< 10
O=c1c2cnc(Nc3ccc(N4CCCC(C(F)(F)F)C4)cc3)nc2n2ccnc2n1-c1ccccc1Cl (stereo not drawn) [Example 231, 6-(2-chlorophenyl)-2-({4-[3-(trifluoromethyl)piperidin-1-yl]phenyl}amino)imidazo[1,2-a]pyrimido[5,4-e]pyrimidin-5(6H)-one]	10 to 100
N#CCCN1CCN(c2ccc(Nc3ncc4c(=O)n(-c5ccccc5Cl)c5nccn5c4n3)cc2)CC1 [Example 232, 3-[4-(4-{[6-(2-chlorophenyl)-5-oxo-5,6-dihydroimidazo[1,2-a]pyrimido[5,4-e]pyrimidin-2-yl]amino}phenyl)piperazin-1-yl]propanenitrile]	10 to 100
N#CCCN(c1ccc(Nc2ncc3c(=O)n(-c4ccccc4Cl)c4nccn4c3n2)cc1)C1CC1 [Example 233, 3-[(4-{[6-(2-chlorophenyl)-5-oxo-5,6-dihydroimidazo[1,2-a]pyrimido[5,4-e]pyrimidin-2-yl]amino}phenyl)(cyclopropyl)amino]propanenitrile]	10 to 100
CN(C)CCNc1ccc(Nc2ncc3c(=O)n(-c4ccccc4Cl)c4nccn4c3n2)cc1 [Example 234, 6-(2-chlorophenyl)-2-[(4-{[2-(dimethylamino)ethyl]amino}phenyl)amino]imidazo[1,2-a]pyrimido[5,4-e]pyrimidin-5(6H)-one]	< 10

Next, values leading:

Ki [nM]	SMILES
< 10	CS(=O)(=O)N1Cc2cc(Nc3ncc4c(=O)n(-c5c(Cl)cccc5Cl)c5nccn5c4n3)ccc2C2(CC2)C1 [Example 206, 6-(2,6-dichlorophenyl)-2-{[2′-(methylsulfonyl)-2′,3′-dihydro-1′H-spiro[cyclopropane-1,4′-isoquinolin]-7′-yl]amino}imidazo[1,2-a]pyrimido[5,4-e]pyrimidin-5(6H)-one]
< 10	CC(=O)N1Cc2cc(Nc3ncc4c(=O)n(-c5c(Cl)cccc5Cl)c5nccn5c4n3)ccc2C2(CC2)C1 [Example 207, 2-[(2′-acetyl-2′,3′-dihydro-1′H-spiro[cyclopropane-1,4′-isoquinolin]-7′-yl)amino]-6-(2,6-dichlorophenyl)imidazo[1,2-a]pyrimido[5,4-e]pyrimidin-5(6H)-one]
< 10	CN1Cc2cc(Nc3ncc4c(=O)n(-c5c(F)cccc5Cl)c5nccn5c4n3)ccc2C1(C)C [Example 209, 6-(2-chloro-6-fluorophenyl)-2-[(1,1,2-trimethyl-2,3-dihydro-1H-isoindol-5-yl)amino]imidazo[1,2-a]pyrimido[5,4-e]pyrimidin-5(6H)-one]
< 10	CN1C(C)(C)c2ccc(Nc3ncc4c(=O)n(-c5c(F)cccc5Cl)c5nccn5c4n3)cc2C1(C)C [Example 210, 6-(2-chloro-6-fluorophenyl)-2-[(1,1,2,3,3-pentamethyl-2,3-dihydro-1H-isoindol-5-yl)amino]imidazo[1,2-a]pyrimido[5,4-e]pyrimidin-5(6H)-one]
< 10	CN1Cc2cc(Nc3ncc4c(=O)n(-c5c(Cl)cc(F)cc5Cl)c5nccn5c4n3)ccc2C(C)(C)C1 [Example 212, 6-(2,6-dichloro-4-fluorophenyl)-2-[(2,4,4-trimethyl-1,2,3,4-tetrahydroisoquinolin-7-yl)amino]imidazo[1,2-a]pyrimido[5,4-e]pyrimidin-5(6H)-one]
< 10	O=c1cn[nH]c2ccc(Nc3ncc4c(=O)n(-c5c(Cl)cccc5Cl)c5nccn5c4n3)cc12 [Example 213, 6-(2,6-dichlorophenyl)-2-[(4-oxo-1,4-dihydrocinnolin-6-yl)amino]imidazo[1,2-a]pyrimido[5,4-e]pyrimidin-5(6H)-one]
< 10	CN(C)C1CCN(c2ccc(Nc3ncc4c(=O)n(-c5c(Cl)cccc5Cl)c5nccn5c4n3)cc2)CC1 [Example 215, 6-(2,6-dichlorophenyl)-2-({4-[4-(dimethylamino)piperidin-1-yl]phenyl}amino)imidazo[1,2-a]pyrimido[5,4-e]pyrimidin-5(6H)-one]
< 10	COC(=O)c1ccc(Nc2ncc3c(=O)n(-c4c(Cl)cccc4Cl)c4nccn4c3n2)cc1 [Example 216, methyl 4-{[6-(2,6-dichlorophenyl)-5-oxo-5,6-dihydroimidazo[1,2-a]pyrimido[5,4-e]pyrimidin-2-yl]amino}benzoate]
< 10	O=c1c2cnc(Nc3ccc4c(c3)CN(CC(F)F)CC43CC3)nc2n2ccnc2n1-c1c(F)cccc1Cl [Example 224, 6-(2-chloro-6-fluorophenyl)-2-{[2′-(2,2-difluoroethyl)-2′,3′-dihydro-1′H-spiro[cyclopropane-1,4′-isoquinolin]-7′-yl]amino}imidazo[1,2-a]pyrimido[5,4-e]pyrimidin-5(6H)-one]
< 10	O=c1c2cnc(Nc3ccc4c(c3)CN(CCF)CC43CC3)nc2n2ccnc2n1-c1c(F)cccc1Cl [Example 225, 6-(2-chloro-6-fluorophenyl)-2-{[2′-(2-fluoroethyl)-2′,3′-dihydro-1′H-spiro[cyclopropane-1,4′-isoquinolin]-7′-yl]amino}imidazo[1,2-a]pyrimido[5,4-e]pyrimidin-5(6H)-one]
< 10	CCN(CC)C1Cc2ccc(Nc3ncc4c(=O)n(-c5c(F)cccc5Cl)c5nccn5c4n3)cc2C1 (stereo not drawn) [Example 226, 6-(2-chloro-6-fluorophenyl)-2-{[2-(diethylamino)-2,3-dihydro-1H-inden-5-yl]amino}imidazo[1,2-a]pyrimido[5,4-e]pyrimidin-5(6H)-one]
< 10	O=c1c2cnc(Nc3ccc4c(c3)CC(NC3CC3)C4)nc2n2ccnc2n1-c1c(F)cccc1Cl (stereo not drawn) [Example 227, 6-(2-chloro-6-fluorophenyl)-2-{[2-(cyclopropylamino)-2,3-dihydro-1H-inden-5-yl]amino}imidazo[1,2-a]pyrimido[5,4-e]pyrimidin-5(6H)-one]
< 10	O=c1c2cnc(Nc3ccc4c(c3)CNCC43CC3)nc2n2ccnc2n1-c1c(F)cccc1Cl [Example 228, 6-(2-chloro-6-fluorophenyl)-2-(2′,3′-dihydro-1′H-spiro[cyclopropane-1,4′-isoquinolin]-7′-ylamino)imidazo[1,2-a]pyrimido[5,4-e]pyrimidin-5(6H)-one]
